# Reference: patent US20260042764A1, “COMPOSITIONS AND METHODS FOR INHIBITION OF KRAS” (TheRas, Inc., priority 2022, published 2026)
# pIC50: −log10 of the molar value.
# Legend:
# [1] = biological target: T1, Avi-KRAS G12D (1-169) GppNHp/RAF1 RBD-3xFLAG (52-151) (Homo sapiens, UniProt P01116, G12D); assay: Raf1-KRAS G12D-GppNHP disruption HTRF assay (Biological Example 1); assay type: binding
# T1 construct: Avi-KRAS G12D (1-169)
# In short: (§1)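 Protein mix, 1 h RT, 700 rpm; reagent mix, 1 h RT, 700 rpm; HTRF read. Buffer Tris pH 7.5/NaCl/MgCl2/BSA/Tween, 10% DMSO. Output % activity, DMSO = 100%.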
# [2] = biological target: T2, Avi-KRAS WT (1-169) GppNHp/RAF1 RBD-3xFLAG (52-151) (Homo sapiens, UniProt P01116); assay: Raf1-KRAS WT-GppNHP disruption HTRF assay (Biological Example 1); assay type: binding
# T2 construct: Avi-KRAS WT (1-169)
# T2 sequence (P01116 1-169 isoform P01116-2): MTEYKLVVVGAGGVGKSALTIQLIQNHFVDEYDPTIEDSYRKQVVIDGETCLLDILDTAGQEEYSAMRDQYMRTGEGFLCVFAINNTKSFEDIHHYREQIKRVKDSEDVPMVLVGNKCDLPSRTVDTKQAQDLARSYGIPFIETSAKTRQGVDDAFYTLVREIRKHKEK
# In short: as §1
# GP2d cells (KRAS G12D) = assay: Cell-based pERK HTRF assay in GP2d cell (Biological Example 2); settings: GP2d, GP2d (KRAS G12D) cells, pERK HTRF
# In short: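 HTRF read-out of pERK (excitation 320 nm, emission 615 nm) after lysates sat 4–24 h at room temperature with Eu cryptate and d2 antibodies.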
# [3] = biological target: T3, Avi-KRAS G12R (1-169) GppNHp/RAF1 RBD-3xFLAG (52-151) (Homo sapiens, UniProt P01116, G12R); assay: Raf1-KRAS G12R-GppNHP disruption HTRF assay (Biological Example 1); assay type: binding
# T3 construct: Avi-KRAS G12R (1-169)
# T3 sequence (P01116 1-169 isoform P01116-2 G12R): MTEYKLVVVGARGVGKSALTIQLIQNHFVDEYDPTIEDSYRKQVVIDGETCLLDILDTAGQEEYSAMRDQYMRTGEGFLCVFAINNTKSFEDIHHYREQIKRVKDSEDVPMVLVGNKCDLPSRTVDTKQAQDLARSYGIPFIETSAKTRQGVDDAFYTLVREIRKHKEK
# In short: as §1
# [4] = biological target: T4, Avi-KRAS G12V (1-169) GppNHp/RAF1 RBD-3xFLAG (52-151) (Homo sapiens, UniProt P01116, G12V); assay: Raf1-KRAS G12V-GppNHP disruption HTRF assay (Biological Example 1); assay type: binding
# T4 construct: Avi-KRAS G12V (1-169)
# T4 sequence (P01116 1-169 isoform P01116-2 G12V): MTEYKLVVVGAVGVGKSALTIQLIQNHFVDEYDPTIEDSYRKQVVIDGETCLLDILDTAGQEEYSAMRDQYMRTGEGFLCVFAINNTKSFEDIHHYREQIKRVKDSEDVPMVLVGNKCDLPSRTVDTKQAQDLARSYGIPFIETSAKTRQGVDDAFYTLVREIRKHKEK
# In short: as §1
# SW620 cells (KRAS G12V) = assay: Cell-based pERK HTRF assay in SW620 cell (Biological Example 4); settings: Homo sapiens, SW-620, SW620 (KRAS G12V) cells, pERK HTRF
# In short: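 SW620 seeded in RPMI/10% FBS, next day dosed 4 h (top 1 μM, half-log, 9 pts, 0.25% DMSO). Lysed, pERK by d2/Eu cryptate HTRF, 4–24 h RT, 615 nm read.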
# [5] = KRAS G12D, GppNHp-loaded, class symbols
# [6] = KRAS WT, GppNHp-loaded, class symbols
# [7] = KRAS G12R, GppNHp-loaded, class symbols
# [8] = KRAS G12V, GppNHp-loaded, class symbols
# T1 sequence (P01116 1-169 isoform P01116-2 G12D): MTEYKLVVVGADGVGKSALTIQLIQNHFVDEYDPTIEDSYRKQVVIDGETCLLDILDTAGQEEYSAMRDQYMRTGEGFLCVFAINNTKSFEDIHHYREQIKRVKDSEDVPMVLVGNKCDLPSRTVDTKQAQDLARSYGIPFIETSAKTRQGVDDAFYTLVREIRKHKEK
"pIC50 [1, 5]","pIC50 [2, 6]",pIC50 (GP2d cells (KRAS G12D); class symbols),"pIC50 [3, 7]","pIC50 [4, 8]",pIC50 (SW620 cells (KRAS G12V); class symbols),pIC50 ([1]; KRAS G12D-GppNHp/RAF1 RBD HTRF),pIC50 ([2]; KRAS WT-GppNHp/RAF1 RBD HTRF),pIC50 (GP2d cells (KRAS G12D)),pIC50 ([3]; KRAS G12R-GppNHp/RAF1 RBD HTRF),pIC50 ([4]; KRAS G12V-GppNHp/RAF1 RBD HTRF),pIC50 (SW620 cells (KRAS G12V)),Compound
6.00 to 7.00,6.00 to 7.00,> 7.00,6.00 to 7.00,6.00 to 7.00,> 7.00,–,–,–,–,–,–,"CCN(c1nc(OC[C@@]23CCCN2C[C@H](F)C3)nc2c(F)c(-c3ccc(F)c4sc(N)c(C#N)c34)c(C(F)(F)F)cc12)[C@H]1CCN(C(=O)[C@@H]2CC23CC3)C1 (atropisomer, axis not shown) [Compound 774]"
> 7.00,> 7.00,> 7.00,> 7.00,> 7.00,> 7.00,–,–,–,–,–,–,"[2H]C1([2H])OC(=O)N2C[C@@H](N(CC)c3nc(OC[C@@]45CCCN4C[C@H](F)C5)nc4c(F)c(-c5ccc(F)c6sc(N)c(C#N)c56)c(C(F)(F)F)cc34)C[C@H]21 (atropisomer, axis not shown) [Compound 760]"
> 7.00,> 7.00,> 7.00,> 7.00,> 7.00,> 7.00,–,–,–,–,–,–,"CCN(c1nc(OC[C@@]23CCCN2C[C@H](F)C3)nc2c(F)c(-c3ccc(F)c4sc(N)c(C#N)c34)c(C(F)(F)F)cc12)[C@H]1CCN(C(=O)OCC2CN(C(C)=O)C2)C1 (atropisomer, axis not shown) [Compound 640]"
> 7.00,> 7.00,> 7.00,> 7.00,> 7.00,> 7.00,–,–,–,–,–,–,"CCN(c1nc(OC[C@@]23CCCN2C[C@H](F)C3)nc2c(F)c(-c3ccc(F)c4sc(N)c(C#N)c34)c(C(F)(F)F)cc12)[C@H]1CCN(C(=O)[C@H]2CC23CC3)C1 (atropisomer, axis not shown) [Compound 772]"
–,–,–,–,–,–,> 7.00,6.00 to 7.00,> 7.00,> 7.00,6.00 to 7.00,> 7.00,"CCN(c1nc(OC[C@@]23CCCN2C[C@H](F)C3)nc2c(F)c(-c3ccc(F)c4sc(N)c(C#N)c34)c(C(F)(F)F)cc12)[C@H]1C[C@@H](C)N(C(=O)OC)C1 (atropisomer, axis not shown) [Compound 557]"
–,–,–,–,–,–,6.00 to 7.00,6.00 to 7.00,> 7.00,6.00 to 7.00,6.00 to 7.00,> 7.00,CN(C)C(=O)c1nnn2c1CN(c1nc(OC[C@@]34CCCN3C[C@H](F)C4)nc3c(F)c(-c4ccc(F)c5sc(N)c(C#N)c45)c(C(F)(F)F)cc13)CC2 [Compound 466]

# The remaining lines, values behind:
Compound,"pIC50 [1, 5]","pIC50 [2, 6]",pIC50 (GP2d cells (KRAS G12D); class symbols),"pIC50 [3, 7]","pIC50 [4, 8]",pIC50 (SW620 cells (KRAS G12V); class symbols),pIC50 ([1]; KRAS G12D-GppNHp/RAF1 RBD HTRF),pIC50 ([2]; KRAS WT-GppNHp/RAF1 RBD HTRF),pIC50 (GP2d cells (KRAS G12D)),pIC50 ([3]; KRAS G12R-GppNHp/RAF1 RBD HTRF),pIC50 ([4]; KRAS G12V-GppNHp/RAF1 RBD HTRF),pIC50 (SW620 cells (KRAS G12V))
CCN(c1nc(OC[C@@]23CCCN2C[C@H](F)C3)nc2c(F)c(-c3ccc(F)c4sc(N)c(C#N)c34)c(C(F)(F)F)cc12)[C@H]1CCN(C(=O)N(C)C)C1 [Compound 395],–,–,–,–,–,–,> 7.00,> 7.00,> 7.00,> 7.00,> 7.00,> 7.00
C[C@@]1(CO)CCN1c1nc(OC[C@@]23CCCN2C[C@H](F)C3)nc2c(F)c(-c3ccc(F)c4sc(N)c(C#N)c34)c(C(F)(F)F)cc12 [Compound 413],–,–,–,–,–,–,< 5.00,< 5.00,< 6.00,< 5.00,< 5.00,< 6.00
N#Cc1c(N)sc2c(F)ccc(-c3c(C(F)(F)F)cc4c(N5C6COCC5CC(O)C6)nc(OC[C@@]56CCCN5C[C@H](F)C6)nc4c3F)c12 (stereo partly drawn) [Compound 374],–,–,–,–,–,–,6.00 to 7.00,6.00 to 7.00,> 7.00,5.00 to 6.00,5.00 to 6.00,> 7.00
CCC(=O)N1CC[C@@H](N(C)c2nc(OC[C@@]34CCCN3C[C@H](F)C4)nc3c(F)c(-c4ccc(F)c5sc(N)c(C#N)c45)c(C(F)(F)F)cc23)[C@H]1CC [Compound 432],–,–,–,–,–,–,5.00 to 6.00,6.00 to 7.00,> 7.00,6.00 to 7.00,5.00 to 6.00,6.00 to 7.00
COC[C@H]1CN(c2nc(OC[C@@]34CCCN3C[C@H](F)C4)nc3c(F)c(-c4ccc(F)c5sc(N)c(C#N)c45)c(C(F)(F)F)cc23)CCO1 [Compound 283],–,–,–,–,–,–,6.00 to 7.00,6.00 to 7.00,> 7.00,6.00 to 7.00,6.00 to 7.00,> 7.00
